Results published in patent publication US12624018B1, “Inhibitors of RIPK2 and medical uses thereof” (Odyssey Therapeutics, Inc., priority 2022, dated 2026).
Where two headings read alike, the source gives them in different places.

What was measured:
[1] = target: T1, RIPK2 and XIAP protein-protein interaction (Homo sapiens, UniProt O43353); assay: Inhibition of the interaction of RIPK2 with XIAP (NanoBRET in HEK293T cells); type: cell-based; conditions: RIPK2 HaloTag / XIAP NanoLuc, read-out: NanoBRET Scaffolding IC50
T1 construct: the N-terminus of full-length RIPK2 was appended with the HaloTag fusion protein; expressed in transfected cells; host or cells: HEK293T
T1 sequence (O43353 whole entry, the tested form may be a part): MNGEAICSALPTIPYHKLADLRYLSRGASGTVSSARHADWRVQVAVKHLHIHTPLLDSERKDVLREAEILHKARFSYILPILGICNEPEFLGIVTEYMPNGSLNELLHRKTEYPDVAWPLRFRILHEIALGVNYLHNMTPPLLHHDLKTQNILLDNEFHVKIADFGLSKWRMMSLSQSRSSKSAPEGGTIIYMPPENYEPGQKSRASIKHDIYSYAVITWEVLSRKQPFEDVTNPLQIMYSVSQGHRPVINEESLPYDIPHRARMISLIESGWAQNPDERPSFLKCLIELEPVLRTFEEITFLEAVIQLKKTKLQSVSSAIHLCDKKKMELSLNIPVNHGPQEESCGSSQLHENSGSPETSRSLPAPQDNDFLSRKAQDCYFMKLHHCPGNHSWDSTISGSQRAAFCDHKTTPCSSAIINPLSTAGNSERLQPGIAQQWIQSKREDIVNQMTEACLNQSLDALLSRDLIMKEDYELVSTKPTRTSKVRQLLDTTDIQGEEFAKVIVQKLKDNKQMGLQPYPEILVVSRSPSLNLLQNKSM
Text: An assay measuring the RIPK2 and XIAP protein-protein interaction was generated using the NanoBRET protein:protein interaction system (Promega) which measures the energy transfer from a bioluminescent protein donor (NanoLuc fusion protein) to a fluorescent protein acceptor (Halotag fusion protein). In this assay, the C-terminus of full-length XIAP was appended with the NanoLuc fusion protein and the N-terminus of full-length RIPK2 was appended with the HaloTag fusion protein. Assay medium consisted of Opti-MEM I reduced serum medium with no phenol red plus 4% heat inactivated FBS. Transfection reagents were combined in a microfuge tube as follows: 400 μL of assay medium, 8 μL of vector with N-terminus of RIPK2 HaloTag fusion protein (vector concentration at 1 μg/μL), 0.8 μL of vector with C-terminus of XIAP NanoLuc fusion protein (vector concentration at 1 μg/μL), and 24 μL of FuGENE HD transfection reagent (Promega, catalogue number E2312). […] Test compounds were prepared into a 10 mM DMSO solution and were serially diluted into 10 points using a 3-fold dilution in a 384 well plate using a TECAN EV0200.
Method: HEK293T cells were transfected with the RIPK2 HaloTag fusion and XIAP NanoLuc fusion vectors in suspension. […] Transfection reagents were pre-mixed and incubated at room temperature for 30 minutes. Then the total transfection reagent mixture was added dropwise to the 16 mL cell suspension and mixed gently. 40 μL of the cells and transfection reagent suspension was plated into a white 384 well plate and incubated at 37° C. in a CO2 incubator for 24 hours. […] Lastly, a 3× solution of NanoBRET Nano-Glo substrate in Opti-MEM I reduced serum media (no phenol red; 20 μL total volume) was added to each well and incubated for 2-3 minutes at room temperature. The plate was then measured using 460 nm filter (donor emission) and 618 nm filter (acceptor emission) in an EnVision multimode plate reader (PerkinElmer). The NanoBRET ratio values were determined by dividing the acceptor emission value by the donor emission value for each sample.

[2] = target: T2, RIPK2 enzyme (Homo sapiens, UniProt O43353); assay: RIPK2 inhibition (ADP-Glo Kinase Assay); type: biochemical; conditions: RIPK2 5 nM, ATP 150 μM, MBP substrate, read-out: RIPK2 IC50
T2 construct: purchased Carna 09-128
T2 sequence (O43353 1-299 limits assumed): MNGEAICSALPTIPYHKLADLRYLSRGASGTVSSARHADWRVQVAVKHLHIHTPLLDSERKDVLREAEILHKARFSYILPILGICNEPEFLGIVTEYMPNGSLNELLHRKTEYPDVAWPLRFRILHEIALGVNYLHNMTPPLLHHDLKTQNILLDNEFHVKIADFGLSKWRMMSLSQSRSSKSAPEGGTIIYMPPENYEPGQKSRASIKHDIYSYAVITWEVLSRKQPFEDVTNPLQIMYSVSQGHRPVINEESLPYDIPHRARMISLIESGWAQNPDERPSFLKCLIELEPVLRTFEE
How it was run: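 Swine MBP substrate; compound and 5 nM RIPK2 first mixed for 30 min at room temperature; buffer pH 7.5 HEPES 50 mM with 10 mM MgCl2, 2 mM DTT, 1 mM EGTA, Brij-35, BSA.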

[3] = system: human NOD2 signaling; assay: Inhibition of human NOD2 signaling in HEK-Blue-hNOD2 cells (L18-MDP stimulated, SEAP reporter); type: cell-based; conditions: NOD2 ligand stimulation, SEAP reporter, read-out: hNOD2 IC50
How it was run: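 Read-out is SEAP absorbance at 620 nm after 3 h QUANTI-Blue development of supernatant from HEK293 cells carrying NOD2 and a SEAP reporter (12500/well). Cells got compound (10 points, 3-fold dilutions) and 0.5 ng/mL L18-MDP for 24 h at 37 °C; percent inhibition vs stimulated/unstimulated controls, 4-parameter IC50.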

[4] = Homo sapiens, HEK-Blue hNOD2, HEK-Blue-hNOD2 cells

Row | Structure (SMILES) | IC50 [1] [nM] | IC50 [2] [nM] | IC50 [3, 4] [nM] | IC50 ([3]; HEK-Blue-hNOD2 cells) [nM]
1 | [2H]C([2H])([2H])NC(=O)c1ccc2nccc(Oc3cc(F)c(CC(=O)Nc4cnn(C56CC(C5)C6)c4)cc3C([2H])([2H])[2H])c2c1 (single isomer, unassigned) [Compound 512, 4-(4-(2-((1-(bicyclo[1.1.1]pentan-1-yl)-1H-pyrazol-4-yl)amino)-2-oxoethyl)-5-fluoro-2-(methyl-d3)phenoxy)-N-(methyl-d3)quinoline-6-carboxamide] | 57.6 | < 2.5 | 2.4 | 
2 | Cc1cc(CC(=O)Nc2cnn(C(C)(C)C)c2)c(F)cc1Oc1ccnc2ccc(CC(N)=O)cc12 [Compound 566, 2-(4-((6-(2-amino-2-oxoethyl)quinolin-4-yl)oxy)-2-fluoro-5-methylphenyl)-N-(1-(tert-butyl)-1H-pyrazol-4-yl)acetamide] | 459 | < 2.5 | 11.1 | 
3 | Cc1cc(CC(=O)Nc2cnn(C(C)(C)C)c2)cc(Cl)c1Oc1ccnc2ccc(C(N)=O)cc12 [Compound 516, 4-(4-(2-((1-(tert-butyl)-1H-pyrazol-4-yl)amino)-2-oxoethyl)-2-chloro-6-methylphenoxy)quinoline-6-carboxamide] | 103 | < 2.5 | 1 | 
4 | Cc1cc(CC(=O)Nc2cnn(C(C)(C)C)c2)ccc1Oc1ccnc2ccc(S(=N)(=O)C(C)C)cc12 (single isomer, unassigned) [Compound 548, N-(1-(tert-butyl)-1H-pyrazol-4-yl)-2-(3-methyl-4-((6-(propan-2-ylsulfonimidoyl)quinolin-4-yl)oxy)phenyl) acetamide] | 108 | < 2.5 |  | 0.9
5 | Cc1cc(CC(=O)Nc2cnn(C34CC(C3)C4)c2)ccc1Oc1ccnc2ccc(S(=N)(=O)C3CC3)cc12 (single isomer, unassigned) [Compound 530, N-(1-(bicyclo[1.1.1]pentan-1-yl)-1H-pyrazol-4-yl)-2-(4-((6-(cyclopropanesul-fonimidoyl)quinolin-4-yl)oxy)-3-methylphenyl) acetamide] | 94.3 | < 2.5 |  | 21.5
6 | Cc1cc(CC(=O)Nc2cnn(C(C)(C)C)c2)cc(Cl)c1Oc1ccnc2ccc(S(C)(=O)=O)cc12 [Compound 473, N-(1-(tert-butyl)-1H-pyrazol-4-yl)-2-(3-chloro-5-methyl-4-((6-(methylsulfonyl)quinolin-4-yl)oxy)phenyl)acetamide] | 171 | < 2.5 | 7.8 | 
7 | Cc1cc(CC(=O)Nc2cnn(C(C)(C)C)c2)c(Cl)cc1Oc1ccnc2ccc(S(C)(=O)=O)cc12 [Compound 474, N-(1-(tert-butyl)-1H-pyrazol-4-yl)-2-(2-chloro-5-methyl-4-((6-(methylsulfonyl)quinolin-4-yl)oxy)phenyl)acetamide] | 621 | 8.1 | 95.6 | 
8 | Cc1cc(CC(=O)Nc2cnn(C(C)(C)C)c2)ccc1Oc1ccnc2ccc(S(=N)(=O)C3CCC3)cc12 (single isomer, unassigned) [Compound 552, N-(1-(tert-butyl)-1H-pyrazol-4-yl)-2-(4-((6-(cyclobutane-sulfonimidoyl)quinolin-4-yl)oxy)-3-methylphenyl) acetamide] | 60.9 | < 2.5 |  | 1.7
9 | Cc1cc(CC(=O)Nc2cnn(C(C)(C)C)c2)ccc1Oc1ccnc2ccc(S(=N)(=O)C(C)C)cc12 (single isomer, unassigned) [Compound 547, N-(1-(tert-butyl)-1H-pyrazol-4-yl)-2-(3-methyl-4-((6-(propan-2-ylsulfonimidoyl)quinolin-4-yl)oxy)phenyl) acetamide] | 153 | < 2.5 | 1.3 | 
10 | Cc1cc(CC(=O)Nc2cnn(C(C)(C)C)c2)c(F)cc1Oc1ccnc2ccc(-c3nccnc3C(F)(F)F)cc12 [Compound 523, N-(1-(tert-butyl)-1H-pyrazol-4-yl)-2-(2-fluoro-5-methyl-4-((6-(3-(trifluoromethyl)pyrazin-2-yl)quinolin-4-yl)oxy)phenyl)acetamide] | 133 | 4.9 | 18.5 | 
11 | Cc1cc(CC(=O)Nc2cnn(C(C)(C)C)c2)c(F)cc1Oc1ccnc2cc(C)c(S(C)(=O)=O)cc12 [Compound 496, N-(1-(tert-butyl)-1H-pyrazol-4-yl)-2-(2-fluoro-5-methyl-4-((7-methyl-6-(methylsulfonyl)quinolin-4-yl)oxy)phenyl)acetamide] | 127 | < 2.5 | 0.5 | 
12 | Cc1c(CC(=O)Nc2cnn(C(C)(C)C)c2)ccc(Oc2ccnc3ccc(S(C)(=O)=O)cc23)c1C [Compound 518, N-(1-(tert-butyl)-1H-pyrazol-4-yl)-2-(2,3-dimethyl-4-((6-(methylsulfonyl)quinolin-4-yl)oxy)phenyl)acetamide] | 26.9 | < 2.5 | 1.5 | 

The next compounds have a lower IC50 [1] than those just listed; values first:

Row | IC50 [1] [nM] | IC50 [2] [nM] | IC50 [3, 4] [nM] | IC50 ([3]; HEK-Blue-hNOD2 cells) [nM] | Structure (SMILES)
13 | 24.2 | < 2.5 | 0.1 |  | CNC(=O)c1cc2c(Oc3ccc(CC(=O)Nc4cnn(C(C)(C)C)c4)cc3C)ccnc2cc1F [Compound 490, 4-(4-(2-((1-(tert-butyl)-1H-pyrazol-4-yl)amino)-2-oxoethyl)-2-methylphenoxy)-7-fluoro-N-methylquinoline-6-carboxamide]
14 | 13.7 | < 2.5 | 0.4 |  | CNC(=O)c1ccc2nccc(Oc3cc(F)c(CC(=O)Nc4cnn(C(C)(C)C)c4)cc3Cl)c2c1 [Compound 498, 4-(4-(2-((1-(tert-butyl)-1H-pyrazol-4-yl)amino)-2-oxoethyl)-2-chloro-5-fluorophenoxy)-N-methylquinoline-6-carboxamide]
15 | 13.1 | < 2.5 | 1.1 |  | Cc1cc(CC(=O)Nc2cnn(C(C)(C)C)c2)c(F)cc1Oc1ccnc2ccc(C(=O)N3[C@H](C)CNC[C@@H]3C)cc12 [Compound 470, N-(1-(tert-butyl)-1H-pyrazol-4-yl)-2-(4-((6-((2R,6S)-2,6-dimethylpiperazine-1-carbonyl)quinolin-4-yl)oxy)-2-fluoro-5-methylphenyl)acetamide]
16 | 7.1 | < 2.5 | 0.1 |  | Cc1cc(CC(=O)Nc2cnn(C(C)(C)C)c2)ccc1Oc1ccnc2cc(F)c(C(N)=O)cc12 [Compound 489, 4-(4-(2-((1-(tert-butyl)-1H-pyrazol-4-yl)amino)-2-oxoethyl)-2-methylphenoxy)-7-fluoroquinoline-6-carboxamide]
17 | 6.6 | < 2.5 | 1.6 |  | CNC(=O)c1ccc2nccc(Oc3c(C)cc(CC(=O)Nc4cnn(C(C)(C)C)c4)cc3F)c2c1 [Compound 469, 4-(4-(2-((1-(tert-butyl)-1H-pyrazol-4-yl)amino)-2-oxoethyl)-2-fluoro-6-methylphenoxy)-N-methylquinoline-6-carboxamide]
18 | 4.6 | < 2.5 | 0.3 |  | Cc1nnc(-c2ccc3nccc(Oc4cc(F)c(CC(=O)Nc5cnn(C(C)(C)C)c5)cc4C)c3c2)o1 [Compound 482, N-(1-(tert-butyl)-1H-pyrazol-4-yl)-2-(2-fluoro-5-methyl-4-((6-(5-methyl-1,3,4-oxadiazol-2-yl)quinolin-4-yl)oxy)phenyl)acetamide]
19 | 3.4 | < 2.5 | 0.2 |  | CNC(=O)c1ccc2nccc(Oc3ccc(CC(=O)Nc4cnn(C(C)(C)C)c4)cc3C)c2c1 [Compound 488, 4-(4-(2-((1-(tert-butyl)-1H-pyrazol-4-yl)amino)-2-oxoethyl)-2-methylphenoxy)-N-methylquinoline-6-carboxamide]
